Key:
S. aureus Xen29 [1] = test: In vitro cellular uptake of radiotracer; type: cell-based; conditions: 1 μCi/mL, 120 min incubation, versus heat killed bacteria
Experimental: (§1) FIG. 12. In vitro 2-[^18F]F-NB uptake by S. aureus Newman and Xen29. 1 μCi of 2-[^18F]F-NB was incubated in a 1 mL culture of S. aureus Newman (green bars) or S. aureus Xen29 (blue bars) for 5, 30, 60, 90 and 120 min.
(§2) S. aureus Newman and S. aureus Xen29 were aerobically grown to OD600 0.6 in LB media at 37° C. To evaluate the uptake of 2-[^18F]F-NB, the bacteria were incubated with 1 μCi/mL of the radiotracer at 37° C. with rapid agitation. Heat-killed (90° C. for 30 min) bacteria were similarly incubated with 2-[^18F]FNB. Aliquots (1 mL) were removed after 5, 30, 60, 90, and 120 min and pelleted by centrifugation (11 000 rpm, 3 min) and washed three times with cold phosphate buffered saline (PBS). Total radioactivity was measured using an automated gamma counter and is reported as the percentage of radioactivity added to the culture. A minimum of five replicates were used for each assay and time point.

S. aureus Newman [2] = test: In vitro cellular uptake of radiotracer; type: cell-based; conditions: 1 μCi/mL, 120 min incubation, versus heat killed bacteria
Experimental: as §1, §2

S. aureus Xen29 [3] = test: PET/CT imaging of rat triceps infection / sterile inflammation model (S. aureus Xen29); type: in vivo, Sprague-Dawley rats
Experimental: FIG. 5. PET/CT imaging of rats infected in the right triceps with the bioluminescent Xen29 strain of S. aureus. (A) Experimental design. (B) 2-[^18F]F-ENB-derived radioactivity accumulates in the infected triceps (red arrow) but not the inflamed triceps (yellow arrow) at 3 h post tracer administration.
FIG. 8. PET/CT imaging of 2-[^18F]F-NB in a rat model of S. aureus Xen29 infection. (A) Radiosynthesis of 2-[^18F]F-NB. (i) [^18F]potassium fluoride, Kryptofix222, potassium carbonate, dimethyl sulfoxide, r.t., 10 min; (ii) 2 M potassium hydroxide in H2O, 105° C., 10 min; Overall decay-corrected radiochemical yield: 26% (n=1).
FIG. 10. Time activity curve (TAC) in infected triceps, inflamed triceps and blood and biodistribution of 2-[^18F]F-NB in major organs. (a) The right triceps of the rats were infected with S. aureus Xen 29 and the left triceps were injected with a 10-fold higher burden of heat-killed S. aureus to induce sterile inflammation. The rats were scanned by PET/CT for 120 min (rats with sterile inflammation in the left triceps) immediately starting from tracer administration. The PET scan was separated into ten frames (1-min) and twenty-two frames (5-min). TACs of infected triceps (blue), inflamed triceps (grey) and blood (left heart ventricle, red) are shown. Data represented as mean with standard error of the mean (n=4). (b) Time-dependent accumulation of 2-[^18F]F-NB in infected and inflamed triceps compared to the blood (left heart ventricle). Data are presented as the mean and standard error of the mean (n=4). […]
(§3) S. aureus (Newman or Xen29) was cultured overnight by inoculating 5 μL of bacteria from a glycerol stock into 10 mL of fresh cation-adjusted Mueller-Hinton (CAMH) broth or tryptic soy broth (TSB). […] After imaging, the infected triceps were collected, homogenized in PBS using a hand-held homogenizer, and the bacterial burden at the time of imaging was determined by plating the muscle tissues onto solid MH medium. After overnight incubation at 37° C., CFUs were quantified by enumeration. […]

S. aureus Xen29 [4] = test: Rescue of sulfamethoxazole antibacterial effect (MIC, microbroth dilution in M9 media); type: cell-based
Experimental: FIG. 13. Impact of PABA analogues on the antibacterial activity of sulfamethoxazole (SMX).
Antibacterial susceptibility tests for aerobically growing bacteria were performed with a modified microbroth dilution assay according to the Clinical and Laboratory Standard Institute in transparent 96-well plates (CLSI. 2006). S. aureus Xen29 (PerkinElmer) were utilized in this study. Briefly, bacteria were grown to mid log phase (OD600 of 0.6-0.7) in cation-adjusted Mueller-Hinton (CAMH) media at 37° C. in an orbital shaker. Subsequently, bacteria were resuspended in the M9 media. A final concentration of 10^6 CFU/mL per well was added to M9 media (1% glucose, 1% casamino acids, 1 mM thiamine, 0.05 mM nicotinamide, 2 mM MgCl2, 0.1 mM CaCl2) containing 2-fold dilutions of SMX to give final concentrations ranging from 0.05 to 100 μg/mL either alone or in the presence of PABA (0.8 μg/mL and 4 μg/mL), F-PABA (0.8 μg/mL and 4 μg/mL), F-NB (10 μg/mL, 20 μg/mL and 40 μg/mL), or F-NAP (10 μg/mL, 20 μg/mL and 40 μg/mL). The plate was examined for bacteria growth using a UV-vis plate reader after 24 h incubation at 37° C. The MIC was recorded as the lowest SMX concentration (μM) required to inhibit at least 90% of bacterial growth as judged by the absorbance of the culture media.

DHPS = DHPS (Staphylococcus aureus, UniProt O05701); test: HPPK-DHPS-DHFR coupled assay; type: biochemical; conditions: concentration of 80 μM
Chain of DHPS (O05701 whole entry): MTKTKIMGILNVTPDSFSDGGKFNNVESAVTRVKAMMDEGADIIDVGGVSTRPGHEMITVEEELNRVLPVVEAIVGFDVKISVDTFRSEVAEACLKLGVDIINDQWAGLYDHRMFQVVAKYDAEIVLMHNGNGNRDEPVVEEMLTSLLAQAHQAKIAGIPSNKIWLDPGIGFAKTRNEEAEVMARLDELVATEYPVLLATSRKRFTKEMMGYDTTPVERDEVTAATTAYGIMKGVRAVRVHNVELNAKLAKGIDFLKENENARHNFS

S. aureus Newman [5] = test: PET/CT imaging of rat triceps infection / sterile inflammation model (S. aureus Newman); type: in vivo, Sprague-Dawley rats; conditions: 60-80 min after tracer injection
Experimental: FIG. 3. PET/CT imaging of a rat model of S. aureus Newman-induced triceps infection. (A) [^18F]FDG PET/CT of a rat in which 8.2±0.2 log10 CFU of S. aureus Newman has been injected into the right triceps (red arrow) and with sterile inflammation in the left triceps (yellow arrow). The image was acquired 60-80 min after tracer injection. (B) Comparison of [18F]FDG accumulation 60-80 min postinjection at sites of infection and sterile inflammation, represented as % injected dose per cc (% ID/cc). […] (D) Comparison of 2-[^18F]F-ENB accumulation in the infected triceps and inflamed triceps 180-200 min after tracer injection: ***P<0.001 from a two-tailed Mann-Whitney U Test (n=7). (E) Ex vivo PET imaging of the excised infected triceps. The area of infection is highlighted in yellow. […]
as §3

S. aureus NfsB = type: biochemical; conditions: NADH 40 μM, substrate varied, Michaelis-Menten fit
Experimental: F-ENB, F-NB and F-NAP by NfsB was performed in 50 mM Tris-HCl buffer (pH 7.4) containing 5 mM EDTA, and 40 μM NADH in a total reaction volume of 500 μL. The reaction was initiated by adding enzyme (22 nM) and the consumption of NADH was monitored at 340 nm. […] Initial velocities as a function of substrate concentration were fitted to the Michaelis-Menten equation using GraphPad Prism 4. Each experiment was performed in triplicate and all the data points were included when the data were fit by the Michaelis-Menten equation.
The nitroreductase assay was performed at room temperature in 50 mM Tris-HCl buffer, pH 7.4, containing 5 mM EDTA in a total reaction volume of 500 μL. Reactions were initiated by the addition of NfsB to a final concentration of 45 nM, and the consumption of NADH was continuously monitored at 340 nm. […] The experiments were performed in triplicate and the initial velocities as a function of substrate concentration were globally fit to the Michaelis-Menten equation using GraphPad Prism 4.

bacterial cells = test: MIC / toxicity of F-PABA; type: cell-based

O=C(O)c1ccc([N+](=O)[O-])cc1[18F] [2-[^18F]F-NB, 2-[^18F]F-4-nitrobenzoate]
uptake of radiotracer by live bacteria (S. aureus Xen29 [1]): Time dependent uptake | uptake of radiotracer by live bacteria (S. aureus Newman [2]): Time dependent uptake | signal at the infection site versus site of sterile inflammation (S. aureus Xen29 [3]; 3 h post injection, ROI analysis): 17 fold | localisation of radioactive signal (S. aureus Xen29 [3]; 180 min post tracer injection): localized at the site of infection

Cc1cc(NS(=O)(=O)c2ccc(N)cc2)no1 [sulfamethoxazole]
MIC (S. aureus Xen29 [4]; Staphylococcus aureus, XEN29, 24 h, M9 media, read-out: MIC of sulfamethoxazole alone): 1.56 µg/mL

CC(=O)c1ccc(N)cc1F [2-fluoro-4-aminoacetophenone, 2-Fluoro-4-aminoacetophenone]
substrate for DHPS (DHPS): not an efficient substrate for DHPS

O=C[C@H]([18F])[C@@H](O)[C@H](O)[C@H](O)CO [[^18F]FDG, 2-Deoxy-2-[18F]fluoro-D-glucose]
radioactivity in the infected triceps (S. aureus Newman [5]): 0.8 % ID/cc | radioactivity in the inflamed triceps (S. aureus Newman [5]; sterile inflammation): 1.2 % ID/cc

CCOC(=O)c1ccc([N+](=O)[O-])cc1F [2-F-ENB, Ethyl 2-fluoro-4-nitrobenzoate]
kcat (S. aureus NfsB): 16.1 ± 1.7 s⁻¹

Nc1ccc(C(=O)O)c(F)c1 [F-PABA, 2-fluoro-4-aminobenzoic acid]
rescue of growth in the presence of sulfamethoxazole (S. aureus Xen29 [4]): rescued bacterial growth in a concentration-dependent manner | MIC of sulfamethoxazole in the presence of 0.8 μg/mL F-PABA (S. aureus Xen29 [4]; 0.8 μg/mL F-PABA): 12.5 µg/mL | increase of sulfamethoxazole MIC by 0.8 μg/mL F-PABA (S. aureus Xen29 [4]; 0.8 μg/mL F-PABA): 8 fold | MIC of sulfamethoxazole in the presence of 4 μg/mL F-PABA (S. aureus Xen29 [4]; 4 μg/mL F-PABA): over 100 μg/mL | MIC (bacterial cells): > 100 µg/mL | toxicity to bacterial or mammalian cells (bacterial cells): not toxic to either bacterial or mammalian cells

CC(=O)c1ccc([N+](=O)[O-])cc1F [2-F-NAP, 2-fluoro-4-nitroacetophenone]
rescue of growth in the presence of sulfamethoxazole (S. aureus Xen29 [4]): unable to rescue growth

Nc1ccc(C(=O)O)cc1 [PABA, p-aminobenzoic acid]
rescue of growth in the presence of sulfamethoxazole (S. aureus Xen29 [4]): bacterial regrowth in the presence of sulfamethoxazole occurred

O=C(O)c1ccc([N+](=O)[O-])cc1F [2-F-NB, 2-fluoro-p-nitrobenzoate]
kcat (S. aureus NfsB): 12.4 ± 1.6 s⁻¹ | rescue of growth in the presence of sulfamethoxazole (S. aureus Xen29 [4]): antagonized the activity of sulfamethoxazole | MIC of sulfamethoxazole in the presence of 40 μg/mL 2-F-NB (S. aureus Xen29 [4]; 40 μg/mL 2-F-NB): 12.5 µg/mL
